The source of these data is patent US20180250251A1, “Treatment of Patients with Familial Hypercholesterolemia on Lipid-Lowering Therapy” (Gemphire Therapeutics Inc., priority 2016, published 2018).

The series deals with patients with HoFH on stable, lipid-lowering therapy. Briefly: COBALT-1 safety and tolerability. It is filed as in vivo, human. The source says: The safety variables include adverse events; safety laboratory parameters (chemistry, hematology, coagulation, and urinalysis) with particular attention to hepatic (e.g., alanine aminotransferase/aspartate aminotransferase, bilirubin, alkaline phosphatase), renal (e.g., blood urea nitrogen, serum creatinine, protein:creatinine ratio, urinalysis sediments, pH, electrolytes), and skeletal muscle (i.e., creatine kinase) toxicities; 12-lead electrocardiograms (ECGs); physical examinations; and vital signs.
Safety will be assessed using the population of all patients who receive any amount of study drug. The assessment of safety will include adverse events, clinical laboratory assessments, ECGs, physical examinations, and vital signs. The safety analysis will be based primarily on the frequency of new or worsening adverse events, laboratory abnormalities, and serious adverse events. Other safety data will be summarized as appropriate.
An adverse event can therefore be any unfavorable and/or unintended sign (including an abnormal laboratory finding), symptom, or disease temporally associated with the use of an investigational medicinal product, whether or not related to the investigational medicinal product. All adverse events, including observed or volunteered problems, complaints, or symptoms, are to be recorded on the appropriate eCRF.
The Investigator will assess the severity (intensity) of each adverse event as mild, moderate, or severe, and will also categorize each adverse event as to its potential relationship to study drug using the categories of Yes or No, as defined below.
Assessment of Severity: Mild—An event that is easily tolerated and generally not interfering with normal daily activities, Moderate—An event that is sufficiently discomforting to interfere with normal daily activities; Severe—An event that is incapacitating with inability to work or perform normal daily activities.
Safety and Tolerability of the treatments were monitored throughout the study.

The mark [1] stands for this setting: 8 patients, 12 weeks gemcabene 300, 600, 900 mg/day.

Marks after values point to notes of the source that are not given here.

With `CC(C)(CCCCOCCCCC(C)(C)C(=O)O)C(=O)O` [Gemcabene, 6-(5-Carboxy-5-methyl-hexyloxy)-2,2-dimethyl-hexanoic acid], under setting [1], the “Any Treatment Emergent Adverse Events (TEAEs), Total Reported” value is 27*; the “Deaths, Total Reported” value worked out at 0; the “Increase in ALT > 3 × ULN, Total Reported” value was determined as 0; the “Increase in serum creatinine > 3 × ULN, Total Reported” value was determined as 0. Further, under setting [1], the “Increase in total bilirubin > 3 × ULN, Total Reported” value worked out at 0; the “Myopathies, Total Reported” value was found to be 0; the “Serious Adverse Events (SAEs), Total Reported” value is listed as 0; the “TEAEs possibly related to Gemcabene, Total Reported” value is 8. Besides, the “TEAEs resulting in discontinuation of Gemcabene, Total Reported” value under setting [1] was determined as 0. Moreover, for the setting “in combination with standard of care lipid modifying therapies”, the safety and tolerability entry is “safe and well tolerated”.
